Assay results reported in paper PMC6102691, “Identification of a novel ligand for the ATAD2 bromodomain with selectivity over BRD4 through a fragment growing approach” (Organic & Biomolecular Chemistry, 2018).

Key:
ATAD2 bromodomain = target: T1, ATAD2 bromodomain (Homo sapiens, UniProt Q6PL18); assay: Surface plasmon resonance (SPR) direct binding to ATAD2; details: for Kd: SPR format assay, Kd above the top concentration projected by extrapolation (extrapolated Rmax from control compound)
T1 construct: 981-1108; GST (N); made in house; host or cells: Escherichia coli BL21 (DE3) pLysS, plasmid pGEX-6P-1
T1 sequence (Q6PL18 981-1108): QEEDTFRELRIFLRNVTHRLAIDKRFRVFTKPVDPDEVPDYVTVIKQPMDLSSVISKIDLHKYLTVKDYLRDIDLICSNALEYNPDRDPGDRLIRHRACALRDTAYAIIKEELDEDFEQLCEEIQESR
Protocol: (§1) Surface plasmon resonance (SPR) was used to assess the direct binding of the fragments and provide Kd values for binding to both ATAD2 and BRD4. SPR can yield artefactual data where the concentration of a small-molecular analyte exceeds ∼250 μM, and accordingly, this was the highest concentration used in the assays.
(§2) 12.5 μM using an Echo 550 (Labcyte). Each well was backfilled to a final volume of 200 nl (for the […]), resulting in final DMSO concentrations of 2 %. 5 μl of GST-ATAD2 was added to each well and incubated for 30mins resulting in a final concentration of 5 nM.
(§3) 5μl of biotinylated-histone H4 peptide (SGRG-K(Ac)-GG-K(Ac)-GLG-K(Ac)-GGA-K(Ac)- RHRKVGG-K(Biotin)) was then added to each well at a final concentration of 500nM. Both GST-ATAD2 and peptide were diluted in buffer B (50 mM Tris pH 7.5, […], 1 mM DTT, 100 μg/ml bovine serum albumin (BSA)). The plate was then incubated at room temperature for 30mins and then 5 μl LanthaScreen® Tb-anti-GST Antibody (Life Technologies) at final concentration of 5 nM was added to each well and incubated for an additional 30mins. 5 μl of streptavidin-XLL65 (Cisbio Assay) at a final concentration of […] was added to each assay well. Both dyes were diluted in buffer C (50 mM Tris pH 7.5, […], 100 μg/ml BSA). The plate was incubated at room temperature for a further 30mins and then read using a PheraStar FS (BMG Labtech). The data were analysed using Graphpad […]
(§4) 1.4 Surface Plasmon Resonance (SPR).
(§5) SPR-based ligand binding assays were performed using Biacore S200 (GE Healthcare) at 25 °C using single cycle affinity.
(§6) ATAD2N1064A was achieved using standard amine coupling on a CM5 chip surface. The surface was prepared through activation with EDC/NHS, followed by injection of 10 µg/ml of respective proteins until target level 8000 RU was reached. The surface was then quenched using 1 M Ethanolamine and washed with running buffer 10 mM HEPES, 150mM NaCl, 0.01% TWEEN20, 0.5 mM TCEP and 1% DMSO with a flow rate of […]. Compounds were injected in a dose-response manner (8 concentration points ranging from 0-200 µM) in series across the control, ATAD2, BRD4, and ATAD2-N1064A flow cells using solvent correction to account for bulk refractive index changes. The reference control channel was subtracted […]
(§7) from immobilised channels and dose-response data was fitted using a steady state constant Rmax 1:1 binding model, using an extrapolated Rmax determined from a binding control compound in those cases where the extrapolated Kd value was greater than the top concentration used in the experiment (200 µM). K d values are reported to the nearest 100th of micromolar. 1 […]
(§8) Crystallisation was performed at 20 °C using the hanging drop vapor diffusion method.
(§9) Crystals of ATAD2 were grown by mixing 2µl ATAD2 at 7mg/ml and 2µl precipitant containing 0.1 M BIS-TRIS pH 6.5 and 2.0 M ammonium sulfate. Crystals were harvested in a diffusion solution containing 10 mM compound, 5% DMSO, 25 mM HEPES pH 7.5, 75 mM NaCl, 50 mM BIS-TRIS pH 6.5 and 1.0 M Ammonium Sulfate for 48hrs. Prior to data collection the crystals were cryo protected with the addition of 25% (v/v) ethylene glycol to the diffusion solution. X-ray diffraction data were recorded at Diamond Light Source (Harwell, Oxfordshire, UK). Data processing was carried out using XDS, POINTLESS/AIMLESS2 and other programs of the CCP4i suite3 run through the CCP4i2 gui. Structures were solved by molecular replacement using PHASER4 and pdb 3DAI as a starting model. REFMAC5 was employed for refinement, and model building was performed using COOT6. PDBs were deposited within the protein database www.pdb.org using accession codes: 11 XXXX, 15a […]

BRD4 = BRD4 (Homo sapiens, UniProt O60885); assay: Surface plasmon resonance (SPR) direct binding to BRD4; details: for Kd: SPR format assay, Kd above the top concentration projected by extrapolation (extrapolated Rmax from control compound)
Protocol: as §1, with “assays. Where the Kd exceeded this limit, projected Kds were determined by extrapolation, using the observed response units for compound binding (RU) relative to the molecular weight of a known control compound.[23]” for “assays.”
as §2, §3, §4, §5, §6, §7, §8, §9

[1] = target: T2, GST-ATAD2 bromodomain / biotinylated acetylated histone H4 peptide (Homo sapiens, UniProt Q6PL18); assay: ATAD2-histone displacement HTRF assay; format: binding; details: for IC50: HTRF format assay, highest concentration 1000 μM; for ATAD2 LE: Ligand efficiency (LE) = 1.4(–log IC50)/N, N = number of non-hydrogen atoms, from HTRF IC50; for ATAD2 inhibition in HTRF, in words: highest concentration assayed 1000 μM
T2 construct: 981-1108; made in house; host or cells: Escherichia coli BL21 (DE3) pLysS, plasmid pGEX-6P-1
T2 sequence (Q6PL18 981-1108): T1 sequence (Q6PL18 981-1108)
Protocol: as §1
1.1 Protein Purification.
The ATAD2 bromodomain 981-1108 was expressed with an N-terminal GST fusion from the pGEX-6P-1 plasmid. The plasmids were transformed into BL21 (DE3) pLysS Escherichia coli (Novagen) and then the cells grown in luria bertani (LB) media at 37 °C until an OD600 of 0.6 was reached. The temperature was reduced to 20 °C and expression induced using 0.2 mM Isopropyl β-D-1-thiogalactopyranoside (IPTG). The cells were harvested after overnight incubation and resuspended in buffer A (20 mM HEPES pH 7.4, 100 mM NaCl, 5 mM Dithiothreitol (DTT)). The cells were lysed by sonication and the lysate cleared by centrifugation (50,000 x g, 4 °C, 1 hr). The protein was passed over 5ml of glutathione Sepharose 4B resin (GE Healthcare) at 4 °C. The resin was then washed with buffer A and the protein eluted with buffer A supplemented with 10 mM glutathione. The protein was then applied to a Superdex 200 26/60 gel filtration column (GE Healthcare) equilibrated in buffer […]
1.2 Isothermal Titration Calorimetry.
ATAD2 was exchanged into ITC buffer (50 mM HEPES pH7.4, 200 mM NaCl, 1 mM DTT).
ITC measurements were carried out at 25°C on a Microcal ITC 200 (Malvern Instruments Ltd, Malvern, UK). Compound 11 at 40mM, 2% DMSO was titrated into ATAD2 prepared in the cell at 150 μM, 2% DMSO. Titrations began with an initial 0.5 μL injection followed by 19x 2 μL injections of compound, with 120s spacing between each injection, and stirred at 1000 rpm throughout the experiment. Data were then analysed using Origin 7.0 (OriginLab Corp., Burlington, NC, USA) and fit with the one-set-of-sites model.
1.3 ATAD2-Histone displacement HTRF assay.
Compounds (dissolved to 100 mM in DMSO) were dispensed into black 384 well assay plates […]
as §2, §3, §4, §5
ATAD2N1064A was achieved using standard amine coupling on a CM5 chip surface. The surface was prepared through activation with EDC/NHS, followed by injection of 10 µg/ml of respective proteins until target level 8000 RU was reached. The surface was then quenched using 1 M Ethanolamine and washed with running buffer 10 mM HEPES, 150mM NaCl, 0.01% TWEEN20, 0.5 mM TCEP and 1% DMSO with a flow rate of […]. Compounds were injected in a dose-response manner (8 concentration points ranging from 0-200 µM) in series across the control, ATAD2, BRD4, and ATAD2-N1064A flow cells using solvent correction to account for bulk refractive index changes. The reference control channel was subtracted

Structure (SMILES) | Kd (ATAD2 bromodomain) [µM] | Kd (BRD4) [µM] | IC50 [1] [µM] | ATAD2 LE [1] | ATAD2 inhibition in HTRF, in words [1] | binding constant towards ATAD2 relative to BRD4 (fold weaker) (ATAD2 bromodomain; SPR, ATAD2 Kd versus BRD4 Kd) [fold] | ATAD2 binding by SPR, in words (ATAD2 bromodomain; SPR) | BRD4 binding by SPR, in words (BRD4; SPR)
CN1C(=O)C(C)(C)c2cc(=O)n(Cc3ccc(C(F)(F)F)cc3)cc21 [Compound 17m] | > 200 | 124 | 179 ± 43 | 0.21 | – | – | – | –
CN1C(=O)C(C)(C)c2cc(=O)n(Cc3ccc(Br)cc3)cc21 [Compound 17k] | 138 | 48 | 236 ± 36 | 0.23 | – | – | – | –
CN1C(=O)C(C)(CC2(C)COC2)c2cc(=O)n(Cc3ccc(Cl)cc3)cc21 (stereo not shown) [Compound 22e] | > 200 | > 2000 | 214 | 0.19 | – | – | – | –
CCCn1cc2c(cc1=O)C(C)(C)C(=O)N2C [Compound 17b] | > 2000 | > 200 | > 1000 | – | – | – | – | –
CCC1(CC)C(=O)N(C)c2cn(Cc3ccc(Cl)cc3)c(=O)cc21 [Compound 18a] | 107 | > 200 | 163 ± 23 | 0.22 | – | – | – | –
CN1C(=O)C(C)(C)c2cc(=O)n(Cc3ccccc3C(=O)O)cc21 [Compound 17q] | > 2000 | > 200 | > 1000 | – | – | – | – | –
CN1C(=O)C(C)(C)c2cc(=O)n(Cc3ccccc3C#N)cc21 [Compound 17o] | > 2000 | > 200 | > 1000 | – | – | – | – | –
Cn1cc2c(cc1=O)C(C)(C)C(=O)N2CCc1ccccc1 [Compound 14c] | > 200 | > 200 | 868 ± 33 | 0.19 | sub-millimolar HTRF IC50 values | – | – | –
CCC1(CC)C(=O)N(C)c2cn(Cc3ccc(C(F)(F)F)cc3)c(=O)cc21 [Compound 18b] | > 200 | > 2000 | 163 ± 37 | 0.20 | – | – | – | –
COC(=O)c1ccc(Cn2cc3c(cc2=O)C(C)(C)C(=O)N3C)cc1 [Compound 17e] | > 200 | 141 | 651 ± 1 | 0.18 | – | – | – | –
CCN1C(=O)C(C)(C)c2cc(=O)n(C)cc21 [Compound 14a] | > 200 | 12.7 | > 1000 | – | some inhibition was observed at the highest concentration assayed | 100 | – | –
CN1C(=O)C(C)(CC(C)(C)C)c2cc(=O)n(Cc3ccc(Cl)cc3)cc21 (stereo not shown) [Compound 22d] | 125 | > 2000 | 489 ± 18 | 0.18 | – | – | – | –
Cn1cc2c(cc1=O)C(C)(C)C(=O)N2CCN1CCOCC1 [Compound 14e] | > 2000 | > 2000 | > 1000 | – | – | – | – | –
CN1C(=O)C(C)(Cc2ccccc2)c2cc(=O)n(Cc3ccc(Cl)cc3)cc21 (stereo not shown) [Compound 22a] | > 200 | > 2000 | > 1000 | – | – | – | – | –
CN1C(=O)C(C)(C)c2cc(=O)n(Cc3ccc(C(N)=O)cc3)cc21 [Compound 17h] | > 200 | > 200 | 680 ± 66 | 0.18 | – | – | – | –
CC1(C)C(=O)Nc2cn(Cc3ccccc3)c(=O)cc21 [Compound 15c] | > 200 | > 200 | > 1000 | – | – | – | – | –
CN1C(=O)C(C)(C)c2cc(=O)n(Cc3cccc(C#N)c3)cc21 [Compound 17p] | > 200 | 184 | 668 ± 28 | 0.19 | – | – | – | –
Cn1cc2c(cc1=O)C(C)(C)C(=O)N2Cc1ccccc1 [Compound 14b] | > 2000 | > 200 | 810 ± 57 | 0.21 | sub-millimolar HTRF IC50 values | – | – | –
CN1C(=O)C(C)(C)c2cc(=O)n(Cc3ccc(S(C)(=O)=O)cc3)cc21 [Compound 17i] | > 200 | 200 | 359 ± 37 | 0.19 | – | – | – | –
CN1C(=O)C(C)(C)c2cc(=O)n(C)cc21 [Compound 17a] | > 2000 | > 200 | > 1000 | – | some inhibition was observed at the highest concentration assayed | – | bound too weakly to ATAD2 to allow Kd values to be calculated | detectable binding to BRD4
